In patent publication US20050197350A1, “Novel quinoline, tetrahydroquinazoline, and pyrimidine derivatives and methods of treatment related to the use thereof” (TAISHO PHARMACEUTICAL CO., LTD., priority 2003, published 2005):

Tested on: MCH receptors
Test: MCH receptor activity class (method not given)
Conditions: MCH receptor activity class 1-3 (percent of control at 10^-7 M or IC50)

| SMILES | class |
| --- | --- |
| CN(C)c1ccnc(N[C@H]2CC[C@@H](NC(=S)Nc3ccc(Br)cc3Cl)CC2)n1 [compound 2316] | 3 (Class 3 The value of percent of control at 10^−7 M was more than 60% or the value of IC50 was more than 200 nM.) |
| Cc1ccccc1NC(=O)NC[C@H]1CC[C@@H](Nc2cc(N(C)C)c3ccccc3n2)CC1 [compound 2368] | 3 (Class 3 The value of percent of control at 10^−7 M was more than 60% or the value of IC50 was more than 200 nM.) |
| CN(C)c1nc(N[C@H]2CC[C@@H](CNC(=O)Nc3ccc(F)cc3)CC2)nc2c1CCCC2 [compound 2456] | 2 (Class 2: The value of percent of control at 10^−7 M was from 40% to 60% or the value of IC′50 was from 50 nM to 200 nM.) |
| CN(C)c1nc(N[C@H]2CC[C@@H](CNC(=O)Nc3c(F)cc(Br)cc3F)CC2)nc2c1CCCC2 [compound 2478] | 3 (Class 3 The value of percent of control at 10^−7 M was more than 60% or the value of IC50 was more than 200 nM.) |
| CCOC(=O)[C@H](CC(C)C)NC(=O)NC[C@H]1CC[C@@H](Nc2cc(N(C)C)c3ccccc3n2)CC1 (relative stereo) [compound 2363] | 3 (Class 3 The value of percent of control at 10^−7 M was more than 60% or the value of IC50 was more than 200 nM.) |

Same assay, conditions: MCH receptor; class by percent of control at 10^-7 M or IC50

| SMILES | class |
| --- | --- |
| CN(C)c1cc(N[C@H]2CC[C@@H](NC(=O)c3ccc(F)c(F)c3F)CC2)nc2ccccc12 [compound 124] | 3 (Class 3 The value of percent of control at 10^−7 M was more than 60% or the value of IC50 was more than 200 nM.) |
| CN(C)c1cc(N[C@H]2CC[C@@H](NC(=O)c3cc4ccccc4s3)CC2)nc2ccccc12 [compound 94] | 3 (Class 3 The value of percent of control at 10^−7 M was more than 60% or the value of IC50 was more than 200 nM.) |
| CN(C)c1nc(N[C@H]2CC[C@@H](NC(=S)Nc3cccnc3)CC2)nc2c1CCCC2 [compound 2076] | 3 (Class 3 The value of percent of control at 10^−7 M was more than 60% or the value of IC50 was more than 200 nM.) |
| CN(C)c1nc(N[C@H]2CC[C@@H](NC(=S)Nc3ccc(F)cc3F)CC2)nc2c1CCCC2 [compound 1972] | 3 (Class 3 The value of percent of control at 10^−7 M was more than 60% or the value of IC50 was more than 200 nM.) |
| CN(C)c1cc(N[C@H]2CC[C@@H](NC(=O)c3cc(F)cc(C(F)(F)F)c3)CC2)nc2ccccc12 [compound 38, N-(cis-4-{[4-(dimethylamino)quinolin-2-yl]amino}cyclohexyl)-3-fluoro-5-(trifluoromethyl)benzamide] | 2 (Class 2: The value of percent of control at 10^−7 M was from 40% to 60% or the value of IC′50 was from 50 nM to 200 nM.) |
| CN(C)c1cc(N[C@H]2CC[C@@H](CNC(=O)c3ccc(Cl)c([N+](=O)[O-])c3)CC2)nc2ccccc12 [compound 154] | 3 (Class 3 The value of percent of control at 10^−7 M was more than 60% or the value of IC50 was more than 200 nM.) |
| CN(C)c1cc(N[C@H]2CC[C@@H](CNC(=O)Cc3ccccc3Br)CC2)nc2ccccc12 [compound 207] | 3 (Class 3 The value of percent of control at 10^−7 M was more than 60% or the value of IC50 was more than 200 nM.) |

Same assay, conditions: activity class 1-3: percent of control at 10^-7 M or IC50

| SMILES | class |
| --- | --- |
| COc1cc(COC(=O)NC2CCC(Nc3nc4c(c(N(C)C)n3)CCCC4)CC2)c([N+](=O)[O-])cc1OC (centres unmarked) [compound 1581, [4-(4-Dimethylamino-5,6,7,8-tetrahydro-quinazolin-2-ylamino)-cyclohexy]-carbamic acid 4,5-dimethoxy-2-nitro-benzyl ester] | 2 (Class 2: The value of percent of control at 10^−7 M was from 40% to 60% or the value of IC′50 was from 50 nM to 200 nM.) |
| CN(C)c1cc(N[C@H]2CC[C@@H](CNC(=O)Oc3ccc4ccccc4c3)CC2)nc2ccccc12 [compound 1569] | 3 (Class 3 The value of percent of control at 10^−7 M was more than 60% or the value of IC50 was more than 200 nM.) |

Same assay, conditions: activity class per percent of control at 10^-7 M or IC50

| SMILES | class |
| --- | --- |
| CN(C)c1nc(N[C@H]2CC[C@@H](NC(=O)c3cc(C(C)(C)C)c(O)c(C(C)(C)C)c3)CC2)nc2c1CCCC2 [compound 1060] | 3 (Class 3 The value of percent of control at 10^−7 M was more than 60% or the value of IC50 was more than 200 nM.) |
| CCOc1ccccc1CNC[C@H]1CC[C@@H](Nc2cc(N(C)C)c3ccccc3n2)CC1 [compound 1123] | 2 (Class 2: The value of percent of control at 10^−7 M was from 40% to 60% or the value of IC′50 was from 50 nM to 200 nM.) |
| CC(CN[C@H]1CC[C@@H](Nc2cc(N(C)C)c3ccccc3n2)CC1)c1ccccc1 (stereo partly drawn) [compound 1110, N4,N4-dimethyl-N2-{cis-4-[(2-phenylpropyl)amino]cyclohexy}quinoline-2,4-diamine] | 3 (Class 3 The value of percent of control at 10^−7 M was more than 60% or the value of IC50 was more than 200 nM.) |
| COc1ccc2c(c1)C(CC(=O)N[C@H]1CC[C@@H](Nc3nc4c(c(N(C)C)n3)CCCC4)CC1)CC2=O (relative stereo) [compound 988] | 3 (Class 3 The value of percent of control at 10^−7 M was more than 60% or the value of IC50 was more than 200 nM.) |

Same assay, conditions: class 1-3 by percent of control at 10^-7 M or IC50

| SMILES | class |
| --- | --- |
| CN(C)c1ccnc(N[C@H]2CC[C@@H](CNC(=O)/C=C/c3ccc([N+](=O)[O-])cc3)CC2)n1 [compound 424] | 1 (Class 1: The value of percent of control at 10^−7 M was less than 40% or the value of IC50 was less than 50 nM.) |

Same assay, conditions: class by percent of control at 10^-7 M or IC50

| SMILES | class |
| --- | --- |
| COc1ccc(OC)c(CNC[C@H]2CC[C@@H](Nc3nc4c(c(N(C)C)n3)CCCC4)CC2)c1 [compound 1367] | 2 (Class 2: The value of percent of control at 10^−7 M was from 40% to 60% or the value of IC′50 was from 50 nM to 200 nM.) |
| CN(C)c1cc(N[C@H]2CC[C@@H](CNC(=O)c3c(Cl)cccc3Cl)CC2)nc2ccccc12 [compound 221] | 2 (Class 2: The value of percent of control at 10^−7 M was from 40% to 60% or the value of IC′50 was from 50 nM to 200 nM.) |
| CN(C)c1cc(N[C@H]2CC[C@@H](CNCCCC#Cc3ccccc3)CC2)nc2ccccc12 [compound 1469] | 3 (Class 3 The value of percent of control at 10^−7 M was more than 60% or the value of IC50 was more than 200 nM.) |
| CCc1cccc(CC)c1NC(=O)N[C@H]1CC[C@@H](Nc2cc(N(C)C)c3ccccc3n2)CC1 [compound 2102] | 1 (Class 1: The value of percent of control at 10^−7 M was less than 40% or the value of IC50 was less than 50 nM.) |
| Cc1c(C(=O)N[C@H]2CC[C@@H](Nc3nccc(N(C)C)n3)CC2)cc(-c2ccccc2)n1CCSCc1c(F)cccc1Cl [compound 891] | 1 (Class 1: The value of percent of control at 10^−7 M was less than 40% or the value of IC50 was less than 50 nM.) |
| CN(C)c1ccnc(N[C@H]2CC[C@@H](NC(=O)c3cc(C(C)(C)C)nn3Cc3ccccc3)CC2)n1 [compound 303] | 2 (Class 2: The value of percent of control at 10^−7 M was from 40% to 60% or the value of IC′50 was from 50 nM to 200 nM.) |
| CN(C)c1cc(N[C@H]2CC[C@@H](NC(=S)Nc3ccc(Br)cc3C(F)(F)F)CC2)nc2ccccc12 [compound 2285] | 2 (Class 2: The value of percent of control at 10^−7 M was from 40% to 60% or the value of IC′50 was from 50 nM to 200 nM.) |
| CN(C)c1ccnc(N[C@H]2CC[C@@H](NC(=O)Cc3cc(C(C)(C)C)c(O)c(C(C)(C)C)c3)CC2)n1 [compound 842] | 1 (Class 1: The value of percent of control at 10^−7 M was less than 40% or the value of IC50 was less than 50 nM.) |
| CN(C)c1ccnc(N[C@H]2CC[C@@H](NC(=O)Cc3ccc(Cl)cc3)CC2)n1 [compound 246] | 3 (Class 3 The value of percent of control at 10^−7 M was more than 60% or the value of IC50 was more than 200 nM.) |
| CCOC(=O)CNC(=O)N[C@H]1CC[C@@H](Nc2nc3c(c(N(C)C)n2)CCCC3)CC1 [compound 1822] | 3 (Class 3 The value of percent of control at 10^−7 M was more than 60% or the value of IC50 was more than 200 nM.) |
| CN(C)c1nc(N[C@H]2CC[C@@H](NC(=O)Nc3ccc(OCc4ccccc4)cc3)CC2)nc2c1CCCC2 [compound 1881] | 3 (Class 3 The value of percent of control at 10^−7 M was more than 60% or the value of IC50 was more than 200 nM.) |
| CN(C)c1ccnc(N[C@H]2CC[C@@H](CNC(=O)CCc3ccccc3O)CC2)n1 [compound 931] | 3 (Class 3 The value of percent of control at 10^−7 M was more than 60% or the value of IC50 was more than 200 nM.) |
| CN(C)c1cc(N[C@H]2CC[C@@H](NC(=O)NCc3ccc(F)cc3)CC2)nc2ccccc12 [compound 2155] | 3 (Class 3 The value of percent of control at 10^−7 M was more than 60% or the value of IC50 was more than 200 nM.) |
| CN(C)c1nc(N[C@H]2CC[C@@H](NC(=S)Nc3ccc4c(c3)OCO4)CC2)nc2c1CCCC2 [compound 1785] | 3 (Class 3 The value of percent of control at 10^−7 M was more than 60% or the value of IC50 was more than 200 nM.) |
| COc1cc(CNC[C@H]2CC[C@@H](Nc3nccc(N(C)C)n3)CC2)cc(OC)c1 [compound 1259] | 3 (Class 3 The value of percent of control at 10^−7 M was more than 60% or the value of IC50 was more than 200 nM.) |
| CCOc1ccc(C(=O)CC(C(=O)NC[C@H]2CC[C@@H](Nc3nccc(N(C)C)n3)CC2)C2C(=O)N(c3ccccc3)N=C2C)cc1 (relative stereo) [compound 944] | 3 (Class 3 The value of percent of control at 10^−7 M was more than 60% or the value of IC50 was more than 200 nM.) |

Same assay, conditions: class by percent of control at 10^−7 M or IC50

| SMILES | class |
| --- | --- |
| Cc1cnc(N[C@H]2CC[C@@H](NC(=O)C[S+]([O-])c3cccc(Br)c3)CC2)nc1N(C)C (relative stereo) [compound 2882, 2-[(3-bromophenyl)sulfinyl]-N-(cis-4-{[4-(dimethylamino)-5-methylpyrimidin-2-yl]amino}cyclohexyl)acetamide] | 1 (Class 1: The value of percent of control at 10^−7 M was less than 40% or the value of IC50 was less than 50 nM.) |
| Cc1cc(N(C)C)nc(N[C@H]2CC[C@@H](NC(=O)c3ccc(F)c(C(F)(F)F)c3)CC2)n1 [compound 2961] | 1 (Class 1: The value of percent of control at 10^−7 M was less than 40% or the value of IC50 was less than 50 nM.) |
| Cc1cnc(N[C@H]2CC[C@@H](NCc3cccc(Cl)c3)CC2)nc1N(C)C [compound 2998] | 3 (Class 3 The value of percent of control at 10^−7 M was more than 60% or the value of IC50 was more than 200 nM.) |
